Earlier results on three molecules are cited in patent US5932245A, “Gelatin or collagen hydrolysate containing drug formulation that provides for immediate release of nanoparticle drug compounds” (priority 1991, dated 1999).

For data set [1] the following is noted: in vivo.
The conditions of data set [2]: in contrast to indometacin.
For data set [3] the following is noted: aqueous medium.

Converted amounts (≈) assume the structure as drawn. Where two headings read alike, the source gives them in different places.

Regarding `COc1ccc2c(c1)c(CC(=O)OCC(=O)O)c(C)n2C(=O)c1ccc(Cl)cc1` [acemetacin, carboxymethyl(1-(4-chlorobenzoyl)-5-methoxy-2-methyl-3-indolyl)acetate], in data set [1], the metabolism result is given as “for the most part metabolized to indometacin”. The ulcerogenic properties entry in data set [2] is given as “weakly pronounced ulcerogenic properties”.

For `COc1ccc(Cl)cc1C(=O)NCCc1ccc(S(=O)(=O)NC(=O)NC2CCCCC2)cc1` [glibenclamide, 1-{4-[2-(5-chloro-2-methoxybenzamido)ethyl]phenylsulfonyl}-3-cyclohexylurea], the solubility in data set [3] (pH 1.3, room temperature) was 1 mg/L (≈ 2.02 µM); in data set [3] (pH 6.0, room temperature), 3 mg/L (≈ 6.07 µM); in data set [3] (pH 7.8, room temperature), “about 30 mg/l”.

In the case of `COc1ccc2c(c1)c(CC(=O)O)c(C)n2C(=O)c1ccc(Cl)cc1` [indometacin, (1-(4-chlorobenzoyl)-5-methoxy-2-methyl-3-indolyl)acetic acid], the “water solubility (in words)” value is “virtually water-insoluble”.
